Experimental data taken from PubChem BioAssay (NCI).
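Tested at 5 concentrations; 48 h exposure; 96-well plates; endpoints linearly interpolated, else capped at highest concentration. TGI marks complete inhibition of growth.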

Key:
Assay in all cases: growth of human tumour cells (NCI), 48 h
786-0 renal = system: 786-0 renal
A549 NSCLC = system: A549 NSCLC
ACHN renal = system: ACHN renal
CAKI-1 renal = system: CAKI-1 renal
CCRF-CEM leukemia = system: CCRF-CEM leukemia
COLO 205 colon = system: COLO 205 colon
DLD-1 colon = system: DLD-1 colon
DMS 114 small cell lung = system: DMS 114 small cell lung
DMS 273 small cell lung = system: DMS 273 small cell lung
EKVX NSCLC = system: EKVX NSCLC
HCC-2998 colon = system: HCC-2998 colon
HCT-116 colon = system: HCT-116 colon
HCT-15 colon = system: HCT-15 colon
HL-60(TB) leukemia = system: HL-60(TB) leukemia
HOP-18 NSCLC = system: HOP-18 NSCLC
HOP-62 NSCLC = system: HOP-62 NSCLC
HOP-92 NSCLC = system: HOP-92 NSCLC
HT29 colon = system: HT29 colon
IGROV1 ovarian = system: IGROV1 ovarian
K-562 leukemia = system: K-562 leukemia
KM12 colon = system: KM12 colon
KM20L2 colon = system: KM20L2 colon
LXFL 529 NSCLC = system: LXFL 529 NSCLC
M14 melanoma = system: M14 melanoma
M19-MEL melanoma = system: M19-MEL melanoma
MALME-3M melanoma = system: MALME-3M melanoma
MOLT-4 leukemia = system: MOLT-4 leukemia
NCI-H226 lung = system: NCI-H226 lung
NCI-H23 lung = system: NCI-H23 lung
NCI-H460 lung = system: NCI-H460 lung
NCI-H522 lung = system: NCI-H522 lung
OVCAR-3 ovarian = system: OVCAR-3 ovarian
OVCAR-4 ovarian = system: OVCAR-4 ovarian
OVCAR-5 ovarian = system: OVCAR-5 ovarian
OVCAR-8 ovarian = system: OVCAR-8 ovarian
SF-268 CNS = system: SF-268 CNS
SF-295 CNS = system: SF-295 CNS
SF-539 CNS = system: SF-539 CNS
SK-MEL-2 melanoma = system: SK-MEL-2 melanoma
SK-MEL-28 melanoma = system: SK-MEL-28 melanoma
SK-MEL-5 melanoma = system: SK-MEL-5 melanoma
SK-OV-3 ovarian = system: SK-OV-3 ovarian
SN12C renal = system: SN12C renal
SNB-19 CNS = system: SNB-19 CNS
SNB-75 CNS = system: SNB-75 CNS
SNB-78 CNS = system: SNB-78 CNS
SR leukemia = system: SR leukemia
SW-620 colon = system: SW-620 colon
TK-10 renal = system: TK-10 renal
U251 CNS = system: U251 CNS
UACC-257 melanoma = system: UACC-257 melanoma
UACC-62 melanoma = system: UACC-62 melanoma
UO-31 renal = system: UO-31 renal
A498 renal = system: A498 renal
LOX IMVI melanoma = system: LOX IMVI melanoma
RPMI-8226 leukemia = system: RPMI-8226 leukemia
RXF 393 renal = system: RXF 393 renal

Cc1ccc2nc3cc(C)c(=O)cc-3sc2c1
TGI (786-0 renal): > 100 µM | TGI (A549 NSCLC): > 100 µM | TGI (ACHN renal): > 100 µM | TGI (CAKI-1 renal): > 100 µM | TGI (CCRF-CEM leukemia): 45.2 µM | TGI (COLO 205 colon): > 100 µM | TGI (DLD-1 colon): > 100 µM | TGI (DMS 114 small cell lung): > 100 µM | TGI (DMS 273 small cell lung): > 100 µM | TGI (EKVX NSCLC): > 100 µM | TGI (HCC-2998 colon): > 100 µM | TGI (HCT-116 colon): > 100 µM | TGI (HCT-15 colon): > 100 µM | TGI (HL-60(TB) leukemia): 64.7 µM | TGI (HOP-18 NSCLC): > 100 µM | TGI (HOP-62 NSCLC): > 100 µM | TGI (HOP-92 NSCLC): > 100 µM | TGI (HT29 colon): > 100 µM | TGI (IGROV1 ovarian): > 100 µM | TGI (K-562 leukemia): > 100 µM | TGI (KM12 colon): > 100 µM | TGI (KM20L2 colon): > 100 µM | TGI (LXFL 529 NSCLC): > 100 µM | TGI (M14 melanoma): > 100 µM | TGI (M19-MEL melanoma): 30.7 µM | TGI (MALME-3M melanoma): > 100 µM | TGI (MOLT-4 leukemia): > 100 µM | TGI (NCI-H226 lung): > 100 µM | TGI (NCI-H23 lung): > 100 µM | TGI (NCI-H460 lung): > 100 µM | TGI (NCI-H522 lung): > 100 µM | TGI (OVCAR-3 ovarian): > 100 µM | TGI (OVCAR-4 ovarian): > 100 µM | TGI (OVCAR-5 ovarian): > 100 µM | TGI (OVCAR-8 ovarian): > 100 µM | TGI (SF-268 CNS): > 100 µM | TGI (SF-295 CNS): > 100 µM | TGI (SF-539 CNS): > 100 µM | TGI (SK-MEL-2 melanoma): > 100 µM | TGI (SK-MEL-28 melanoma): > 100 µM | TGI (SK-MEL-5 melanoma): > 100 µM | TGI (SK-OV-3 ovarian): > 100 µM | TGI (SN12C renal): > 100 µM | TGI (SNB-19 CNS): > 100 µM | TGI (SNB-75 CNS): 84.9 µM | TGI (SNB-78 CNS): > 100 µM | TGI (SR leukemia): > 100 µM | TGI (SW-620 colon): > 100 µM | TGI (TK-10 renal): > 100 µM | TGI (U251 CNS): > 100 µM | TGI (UACC-257 melanoma): > 100 µM | TGI (UACC-62 melanoma): 82.8 µM | TGI (UO-31 renal): > 100 µM

Cc1ccc(S(=O)(=O)c2ccc(C)cc2[N+](=O)[O-])cc1
TGI (786-0 renal): > 100 µM | TGI (A498 renal): > 100 µM | TGI (A549 NSCLC): > 100 µM | TGI (ACHN renal): > 100 µM | TGI (CAKI-1 renal): > 100 µM | TGI (CCRF-CEM leukemia): > 100 µM | TGI (COLO 205 colon): > 100 µM | TGI (DLD-1 colon): > 100 µM | TGI (DMS 114 small cell lung): 73.3 µM | TGI (DMS 273 small cell lung): > 100 µM | TGI (EKVX NSCLC): > 100 µM | TGI (HCC-2998 colon): > 100 µM | TGI (HCT-116 colon): > 100 µM | TGI (HCT-15 colon): > 100 µM | TGI (HL-60(TB) leukemia): > 100 µM | TGI (HOP-18 NSCLC): > 100 µM | TGI (HOP-62 NSCLC): > 100 µM | TGI (HOP-92 NSCLC): > 100 µM | TGI (HT29 colon): > 100 µM | TGI (IGROV1 ovarian): > 100 µM | TGI (K-562 leukemia): > 100 µM | TGI (KM12 colon): > 100 µM | TGI (KM20L2 colon): > 100 µM | TGI (LOX IMVI melanoma): > 100 µM | TGI (LXFL 529 NSCLC): > 100 µM | TGI (M14 melanoma): > 100 µM | TGI (M19-MEL melanoma): > 100 µM | TGI (MALME-3M melanoma): > 100 µM | TGI (MOLT-4 leukemia): > 100 µM | TGI (NCI-H226 lung): > 100 µM | TGI (NCI-H23 lung): > 100 µM | TGI (NCI-H460 lung): > 100 µM | TGI (NCI-H522 lung): > 100 µM | TGI (OVCAR-3 ovarian): > 100 µM | TGI (OVCAR-4 ovarian): > 100 µM | TGI (OVCAR-5 ovarian): > 100 µM | TGI (RPMI-8226 leukemia): > 100 µM | TGI (RXF 393 renal): > 100 µM | TGI (SF-268 CNS): > 100 µM | TGI (SF-295 CNS): > 100 µM | TGI (SF-539 CNS): > 100 µM | TGI (SK-MEL-2 melanoma): > 100 µM | TGI (SK-MEL-28 melanoma): > 100 µM | TGI (SK-MEL-5 melanoma): 76.8 µM | TGI (SK-OV-3 ovarian): > 100 µM | TGI (SN12C renal): > 100 µM | TGI (SNB-19 CNS): > 100 µM | TGI (SNB-75 CNS): > 100 µM | TGI (SNB-78 CNS): > 100 µM | TGI (SR leukemia): > 100 µM | TGI (SW-620 colon): > 100 µM | TGI (TK-10 renal): > 100 µM | TGI (U251 CNS): > 100 µM | TGI (UACC-257 melanoma): > 100 µM | TGI (UACC-62 melanoma): > 100 µM | TGI (UO-31 renal): > 100 µM
